Laboratory results: ChEMBL document CHEMBL5260850, “The exploration of aza-quinolines as hematopoietic prostaglandin D synthase (H-PGDS) inhibitors with low brain exposure” (Bioorg Med Chem, 2020)
Values after ≈ are worked out from the molar mass of the structure shown.

Experiments:
[1] = target: Hematopoietic prostaglandin D synthase (Homo sapiens, UniProt O60760); assay: Inhibition of human H-PGDS expressed in Escherichia coli BL21 DE3 cells assessed as reduction in PGD2 production using PGH2 as substrate by RapidFire High Throughput Mass spectrometry
Hematopoietic prostaglandin D synthase (Homo sapiens, UniProt O60760), sequence (O60760 whole entry): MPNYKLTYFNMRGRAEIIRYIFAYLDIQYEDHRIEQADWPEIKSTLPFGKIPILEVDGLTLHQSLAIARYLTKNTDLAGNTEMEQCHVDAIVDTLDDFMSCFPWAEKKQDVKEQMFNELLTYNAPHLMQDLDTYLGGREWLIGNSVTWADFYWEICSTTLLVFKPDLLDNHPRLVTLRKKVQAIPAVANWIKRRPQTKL

[2] = target: T1, Hematopoietic prostaglandin D synthase (Rattus norvegicus, UniProt O35543); assay: Inhibition of H-PGDS in rat RBL cells assessed as reduction in A23187-induced PGD2 production pretreated for 30 mins followed by A23187 addition for 30 mins by RapidFire Mass spectrometry; assay type: cell-based
T1 sequence (O35543 whole entry): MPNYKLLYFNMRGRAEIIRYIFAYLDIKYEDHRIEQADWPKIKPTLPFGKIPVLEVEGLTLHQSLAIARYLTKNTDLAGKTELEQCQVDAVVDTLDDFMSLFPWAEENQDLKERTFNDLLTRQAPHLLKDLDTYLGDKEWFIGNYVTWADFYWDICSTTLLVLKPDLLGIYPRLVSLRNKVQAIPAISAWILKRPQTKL

Albumin = Albumin (Homo sapiens, UniProt P02768); assay: Protein binding in human serum albumin by HPLC analysis; assay type: ADME, cell-free; conditions: read-out: PB (converted)
Albumin, sequence (P02768 whole entry): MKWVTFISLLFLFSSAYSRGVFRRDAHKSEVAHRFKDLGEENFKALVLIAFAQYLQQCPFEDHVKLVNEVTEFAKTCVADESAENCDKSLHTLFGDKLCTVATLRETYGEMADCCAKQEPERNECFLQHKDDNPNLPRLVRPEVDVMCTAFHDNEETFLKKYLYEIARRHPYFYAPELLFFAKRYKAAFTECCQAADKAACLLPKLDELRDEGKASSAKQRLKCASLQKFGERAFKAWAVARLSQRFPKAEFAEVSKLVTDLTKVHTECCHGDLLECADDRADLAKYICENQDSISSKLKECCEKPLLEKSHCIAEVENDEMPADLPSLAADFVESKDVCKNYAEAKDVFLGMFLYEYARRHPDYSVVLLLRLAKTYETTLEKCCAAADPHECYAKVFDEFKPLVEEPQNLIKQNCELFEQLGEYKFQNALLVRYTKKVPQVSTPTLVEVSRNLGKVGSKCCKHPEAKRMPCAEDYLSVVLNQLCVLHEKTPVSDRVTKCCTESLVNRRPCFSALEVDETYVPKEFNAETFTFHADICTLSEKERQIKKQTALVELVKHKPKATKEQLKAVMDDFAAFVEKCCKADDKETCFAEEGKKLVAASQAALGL

[3] = Half life in mouse liver microsomes pretreated for 5 mins followed by incubation with NADP for 30 secs and measured upto 45 mins by LC-MS/MS analysis; assay type: ADME, Microsome; conditions: time 3030 sec
[4] = Solubility of the compound in FaSSIF at pH 6.5 measured after 4 hrs by HPLC-UV analysis; assay type: ADME
[5] = Dose normalized AUC in mouse at 3 mg/kg, po; assay type: ADME, organism-based; design: unit not given here; conditions: in vivo
[6] = Apparent permeability, Papp of the compound at pH 7.4 incubated for 3 hrs by AMP based liquid chromatography; assay type: ADME; conditions: not told

Row | SMILES | IC50 [1] | EC50 [2] | fraction unbound (Albumin) | half-life [3] | solubility at 4 h [4] | AUC/dose [5] | Papp at 3 h [6]
1 | CC(C)(O)[C@H]1CC[C@H](NC(=O)c2cnc3nc(OCC(F)(F)F)ccc3c2)CC1 | 350 nM | 1100 nM | – | – | – | – | –
2 | CC(C)(O)[C@H]1C[C@H](NC(=O)c2cnc3cc(C4CC4)ncc3c2)C1 | 65 nM | 280 nM | 0.24 | > 3 h | 280 µg/mL (≈ 860 µM) | 45.3 | 13 ×10⁻⁶ cm/s
3 | O=C(N[C@H]1CC[C@H](N[C@H](CO)C(F)(F)F)CC1)c1cnc2cc(C3CC3)ncc2c1 | 31 nM | 310 nM | – | > 3 h | 100 µg/mL (≈ 237 µM) | 693 | 18 ×10⁻⁶ cm/s
4 | C[C@H]1CCN1c1nc2ncc(C(=O)N[C@H]3C[C@H](C(C)(C)O)C3)cc2cc1Cl | 3.1 nM | < 2.5 nM | – | – | – | – | –
5 | CC(C)(O)[C@H]1C[C@H](NC(=O)c2cnc3nc(C4CC4)ccc3c2)C1 | 36 nM | 280 nM | 0.26 | > 3 h | 100 µg/mL (≈ 307 µM) | 77.5 | –
6 | O=C(N[C@H]1CC[C@H](N2CC(F)C2)CC1)c1cnc2cc(C3CC3)ncc2c1 | 35 nM | 280 nM | – | > 3 h | > 1000 µg/mL | 358 | 27 ×10⁻⁶ cm/s
7 | CC(C)(O)[C@H]1CC2(C[C@H](NC(=O)c3cnc4nc(C5CC5)ccc4c3)C2)C1 (stereo partly drawn) | 3.9 nM | 32 nM | 0.14 | > 3 h | 35 µg/mL (≈ 95.8 µM) | 477 | 4.5 ×10⁻⁶ cm/s
8 | C[C@]1(O)C[C@@H](NC(=O)c2cnc3nc(C4CC4)ccc3c2)C1 | 160 nM | 1300 nM | – | – | – | – | –
9 | C[C@]1(O)C[C@@H](NC(=O)c2cnc3nc(N4CCC4)ccc3c2)C1 | 140 nM | 17000 nM | – | – | – | – | –
10 | O=C(N[C@H]1CCNC1=O)c1cnc2nc(C3CC3)ccc2c1 | 44 nM | 640 nM | – | – | – | – | –
11 | C[C@]1(O)C[C@@H](NC(=O)c2cnc3cc(C4CC4)ncc3c2)C1 | 290 nM | 910 nM | – | – | – | – | –
12 | C[C@]1(O)C[C@@H](NC(=O)c2cnc3nc(C4CC4)c(Cl)cc3c2)C1 | 7.1 nM | 54 nM | 0.13 | > 3 h | 31 µg/mL (≈ 93.4 µM) | 152 | 22 ×10⁻⁶ cm/s
13 | C[C@H]1CCN1c1nc2ncc(C(=O)N[C@H]3CCNC3=O)cc2cc1Cl | 5.1 nM | 3.8 nM | 0.19 | > 3 h | > 1000 µg/mL | 86.2 | < 0.3 ×10⁻⁶ cm/s
14 | CC(C)(O)[C@H]1C[C@H](NC(=O)c2cnc3nc(C4CC4)c(Cl)cc3c2)C1 | 3.9 nM | 11 nM | 0.12 | > 3 h | 46 µg/mL (≈ 128 µM) | 45.2 | 28 ×10⁻⁶ cm/s
15 | C[C@H]1CCN1c1cc2ncc(C(=O)N[C@H]3CCNC3=O)cc2cn1 | 37 nM | 260 nM | 0.44 | > 3 h | 630 µg/mL (≈ 1940 µM) | 715 | 1.4 ×10⁻⁶ cm/s
16 | C[C@H]1CCN1c1nc2ncc(C(=O)N[C@H]3C[C@@](C)(O)C3)cc2cc1Cl | 5 nM | < 2.5 nM | – | – | – | – | –
17 | C[C@H]1CCN1c1nc2ncc(C(=O)N[C@H]3CC[C@H](C(C)(C)O)CC3)cc2cc1Cl | 3.8 nM | 3.9 nM | – | – | – | – | –
18 | CC(C)(O)[C@H]1CC[C@H](NC(=O)c2cnc3nc(C4CCC4)ccc3c2)CC1 | 10 nM | 120 nM | – | – | – | – | –
19 | CC(C)(O)[C@H]1CC[C@H](NC(=O)c2cnc3nc(C4CC4)c(Cl)cc3c2)CC1 | 4.7 nM | 5.2 nM | – | – | – | – | –
20 | O=C(N[C@H]1CCNC1=O)c1cnc2nc(N3CCC3)ccc2c1 | 71 nM | 6000 nM | – | – | – | – | –
21 | C[C@]1(O)C[C@H](NC(=O)c2cnc3nc(C4CC4)ccc3c2)C1 | 300 nM | 7400 nM | – | – | – | – | –

Row | SMILES | IC50 [1] | EC50 [2] | fraction unbound (Albumin) | half-life [3] | solubility at 4 h [4] | AUC/dose [5] | Papp at 3 h [6]
22 | C[C@H]1CCN1c1nc2ncc(C(=O)N[C@H]3CC[C@](C)(O)CC3)cc2cc1Cl | 4.6 nM | 3.7 nM | 0.13 | > 3 h | 740 µg/mL (≈ 1900 µM) | 132 | 11 ×10⁻⁶ cm/s
23 | CC(C)(O)[C@H]1CC[C@H](NC(=O)c2cnc3nc(C4CC4)ncc3c2)CC1 | 6.4 nM | 170 nM | 0.36 | > 3 h | – | 204 | 2.2 ×10⁻⁶ cm/s
24 | C[C@H]1CCN1c1nc2ncc(C(=O)N[C@H]3C[C@](C)(O)C3)cc2cc1Cl | 5 nM | 4.7 nM | – | – | – | – | –
25 | CC(C)(O)[C@]12C[C@@](NC(=O)c3cnc4cc(C5CC5)ncc4c3)(C1)C2 | 38 nM | 210 nM | – | – | – | – | –
26 | O=C(N[C@H]1CCNC1=O)c1cnc2nc(C3CC3)c(Cl)cc2c1 | 4.6 nM | 14 nM | 0.19 | > 3 h | 120 µg/mL (≈ 363 µM) | 252 | 3 ×10⁻⁶ cm/s
27 | CC(C)(O)[C@H]1CC[C@H](NC(=O)c2cnc3nc(N4CCC4)c(Cl)cc3c2)CC1 | 2.4 nM | 3.9 nM | – | – | – | – | –
28 | CC(C)(O)[C@]12C[C@@](NC(=O)c3cnc4nc(C5CC5)ccc4c3)(C1)C2 | 17 nM | 230 nM | 0.31 | > 3 h | 400 µg/mL (≈ 1190 µM) | 285 | 3.4 ×10⁻⁶ cm/s
29 | C[C@]1(O)C[C@H](NC(=O)c2cnc3nc(C4CC4)c(Cl)cc3c2)C1 | 6.4 nM | 190 nM | 0.14 | > 3 h | 700 µg/mL (≈ 2110 µM) | 362 | 15 ×10⁻⁶ cm/s
30 | CC(C)(O)[C@H]1CC[C@H](NC(=O)c2cnc3nc(N4CCC4)ncc3c2)CC1 | 12 nM | 340 nM | 0.46 | 2.43 h | 210 µg/mL (≈ 568 µM) | 23.4 | < 1 ×10⁻⁶ cm/s
31 | C[C@H]1CCN1c1cc2ncc(C(=O)N[C@H]3CC[C@H](C(C)(C)O)CC3)cc2cn1 | 4.8 nM | 50 nM | – | – | – | – | –
32 | CC(C)c1ccc2cc(C(=O)N[C@H]3CC[C@H](C(C)(C)O)CC3)cnc2n1 | 8.5 nM | 64 nM | – | – | – | – | –
33 | COc1ccc2cc(C(=O)N[C@H]3CC[C@H](C(C)(C)O)CC3)ccc2c1 | 1300 nM | > 50000 nM | – | – | – | – | –
34 | CC(C)(O)[C@H]1CC[C@H](NC(=O)c2cnc3nc(NCC(F)F)ccc3c2)CC1 | 150 nM | 12000 nM | – | – | – | – | –
35 | COc1nc2ncc(C(=O)N[C@H]3CC[C@H](C(C)(C)O)CC3)cc2cc1Cl | 6.6 nM | 22 nM | – | – | – | – | –
36 | C[C@@H]1CCN1c1cc2ncc(C(=O)N[C@H]3CC[C@H](C(C)(C)O)CC3)cc2cn1 | 160 nM | 450 nM | – | – | – | – | –
37 | CC(C)(O)[C@H]1CC[C@H](NC(=O)c2cnc3nc(NCC(F)(F)F)ccc3c2)CC1 | 690 nM | 9600 nM | – | – | – | – | –
38 | C[C@@H]1CCN1c1ccc2cc(C(=O)N[C@H]3CC[C@H](C(C)(C)O)CC3)cnc2n1 | 310 nM | 3000 nM | – | – | – | – | –
39 | O=C(N[C@H]1CC[C@H](N2CC(F)(F)C2)CC1)c1cnc2nc(C3CC3)ccc2c1 | 14 nM | 50 nM | – | – | – | – | –
40 | O=C(N[C@H]1CC[C@H](N2CC(F)(F)C2)CC1)c1cnc2cc(C3CC3)ncc2c1 | 14 nM | 88 nM | – | – | – | – | –
41 | CC(C)(O)[C@H]1CC[C@H](NC(=O)c2cnc3nc(N4CC(F)C4)ccc3c2)CC1 | 13 nM | 1000 nM | – | – | – | – | –
